We go through seven compounds from PubChem BioAssay (NCI).

Some test systems named below: 786-0 renal; CAKI-1 renal; HL-60(TB) leukemia; HS 578T breast; HT29 colon; MDA-MB-435; MOLT-4 leukemia; NCI-H460 lung; RPMI-8226 leukemia; HCC-2998 colon.
Common to all, as to experiment: NCI-60 cell line screen, 48 h

The structures appear in SMILES notation.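 Compound exposure: 48 hours, 5 concentrations, 96-well plates. At the GI50, growth is halved. At the TGI there is no net growth.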 *1 amine or outer side, *2 acyl side, *3 side chain or, on linkers, in order; H or OH if unused. Where a SMILES comes first, the peptide text is derived from it. [ ]: non-standard residue; d: D form. The star is where a group is joined. ξ: configuration not given here. X15 = CCN(CC)c1ccc2cc(N*)c(=O)oc2c1; dIva = CC[C@@](C)(N)C(=O)O; X14 = O=C(OCCN[*:1])[*:2]; Aib = CC(C)(N)C(=O)O; ξP = O=C(O)C1CCCN1; βAla = NCCC(=O)O

With `CC(=O)O[C@H]1CC[C@@]2(C)[C@@H](CC[C@@H]3[C@@H]2CC[C@]2(C)C=C(C=O)C[C@@H]32)C1`, the GI50 is 19.5 µM in the test on 786-0 renal; 29.8 µM with CAKI-1 renal; 2.2 µM in the test on HL-60(TB) leukemia; 4.41 µM in the test on HS 578T breast; 8.32 µM in the test with HT29 colon; 5.01 µM in the test on MDA-MB-435. Moreover, the figures for the GI50 in the test with MOLT-4 leukemia, with NCI-H460 lung and with RPMI-8226 leukemia were 2.61 µM, 20.6 µM and 2.74 µM, respectively. Moreover, the TGI was found to be 37.3 µM in the test on 786-0 renal; 98.1 µM in the test on CAKI-1 renal; 5.87 µM in the test on HL-60(TB) leukemia; 50.1 µM in the test with HS 578T breast; 25.6 µM with HT29 colon; 19.2 µM in the test with MDA-MB-435. The results for the TGI in the test with MOLT-4 leukemia, in the test on NCI-H460 lung and in the test with RPMI-8226 leukemia were 7.33 µM, 42.4 µM and 8.16 µM, respectively.

As for `CCOC(=O)c1nc(Nc2ccc(Cl)cc2)c2ccccc2n1`, the GI50 in the test with 786-0 renal is 10.4 µM; in the test on CAKI-1 renal, 7.73 µM; in the test on HCC-2998 colon, 8.46 µM; in the test on HL-60(TB) leukemia it was greater than 50 µM; in the test on HS 578T breast, 11.3 µM; with MDA-MB-435, 6.85 µM. In addition, the GI50 in the test with NCI-H460 lung was 9.44 µM; with RPMI-8226 leukemia it was 11.8 µM. Also, the TGI is 21.4 µM in the test with 786-0 renal; 16.3 µM in the test on CAKI-1 renal; 15.6 µM in the test on HCC-2998 colon; greater than 50 µM with HL-60(TB) leukemia; 27.2 µM in the test with HS 578T breast; 13.3 µM in the test on MDA-MB-435. For the same compound, the figures for the TGI in the test with NCI-H460 lung and in the test with RPMI-8226 leukemia were 23.7 µM and 30.2 µM, respectively.

`CCN(CC)c1ccc2cc(NC(=O)OCCNC(=O)CCNC(=O)[C@H](CC(C)C)NC(=O)C(C)(C)NC(=O)C(C)(C)NC(=O)[C@H](CC(C)C)NC(=O)CCNC(=O)C(C)(C)NC(=O)[C@H](CC(C)C)NC(=O)CCNC(=O)[C@@](C)(CC)NC(=O)[C@H](C)NC(=O)CCNC(=O)C(C)(C)NC(=O)[C@H](C)NC(=O)[C@@H]3CCCN3C(=O)[C@@](C)(CC)NC(=O)[C@H](Cc3ccccc3)NC(=O)C3CCCN3C(=O)C(C)(C)NC(=O)C3CCCN3C(=O)C(C)(C)NC(C)=O)c(=O)oc2c1` (some centres undefined) (Ac-[Aib][ξP][Aib][ξP]F[dIva]PA[Aib][βAla]A[dIva][βAla]L[Aib][βAla]L[Aib][Aib]L[βAla][X14]-X15): the GI50 was 0.0102 µM in the test on 786-0 renal; 0.156 µM in the test on CAKI-1 renal; 0.00477 µM in the test with HCC-2998 colon; 0.00316 µM in the test with HL-60(TB) leukemia; 0.0045 µM in the test on HS 578T breast; 0.00366 µM in the test on HT29 colon. Moreover, the GI50 in the test on MDA-MB-435 was 0.00353 µM; in the test on MOLT-4 leukemia, 0.00399 µM; in the test with NCI-H460 lung it was 0.00348 µM. Moreover, the TGI in the test with 786-0 renal came to 0.0319 µM; with CAKI-1 renal it was 0.304 µM; in the test on HCC-2998 colon, 0.127 µM; in the test with HL-60(TB) leukemia it was 0.011 µM; in the test with HS 578T breast, 0.0548 µM; in the test on HT29 colon, 0.103 µM. Moreover, the TGI in the test on MDA-MB-435 was 0.0252 µM; with MOLT-4 leukemia, 0.0184 µM; in the test on NCI-H460 lung it was 0.0138 µM.

In the case of `CCCOc1nc(SCCC)nc2c1cnn2-c1ccccc1`, the GI50 with 786-0 renal is greater than 100 µM; with CAKI-1 renal, 68.2 µM; in the test on HCC-2998 colon it was greater than 100 µM; with HL-60(TB) leukemia it was 38 µM; in the test on HS 578T breast it was greater than 100 µM; in the test on MDA-MB-435 it was 53.1 µM. Further, the GI50 in the test with MOLT-4 leukemia was greater than 100 µM; with NCI-H460 lung, greater than 100 µM; with RPMI-8226 leukemia, 70.9 µM. The TGI in the test on 786-0 renal, in the test on CAKI-1 renal, in the test on HCC-2998 colon, in the test with HL-60(TB) leukemia, with HS 578T breast and with MDA-MB-435 was greater than 100 µM in each case. In addition, the TGI with MOLT-4 leukemia, in the test with NCI-H460 lung and in the test on RPMI-8226 leukemia was greater than 100 µM in each case.

Turning to `COC(=O)C1=C(OC(=O)c2ccc(Cl)cc2)C(C(=O)OC)[C@@]2(O)[C@@H](C(=O)OC)C(c3ccccc3Cl)C[C@@H]1[C@@H]2C(=O)OC` (some centres undefined), the GI50 was 7.27 µM in the test with 786-0 renal; 2.09 µM in the test on CAKI-1 renal; 14.3 µM in the test on HCC-2998 colon; 3.79 µM in the test with HS 578T breast; 6.57 µM with HT29 colon; 2.06 µM in the test with MDA-MB-435. Further, the GI50 in the test on MOLT-4 leukemia was 3.54 µM; with NCI-H460 lung, 4.18 µM; in the test with RPMI-8226 leukemia, 8.79 µM. The TGI in the test on 786-0 renal was greater than 100 µM; with CAKI-1 renal, 7.35 µM; in the test on HCC-2998 colon, greater than 100 µM; in the test with HS 578T breast, greater than 100 µM; in the test on HT29 colon, greater than 100 µM; in the test with MDA-MB-435, 4.93 µM. The TGI with MOLT-4 leukemia is 34.6 µM; with NCI-H460 lung it was greater than 100 µM; in the test on RPMI-8226 leukemia it was greater than 100 µM.

As for `COc1cc(C(=O)/C=C/c2cccnc2Nc2ccccc2)cc(OC)c1OC`, the GI50 is 1.29 µM in the test with 786-0 renal; 1.18 µM with HCC-2998 colon; 1.52 µM with HL-60(TB) leukemia; 2.15 µM in the test with HS 578T breast; 0.514 µM with HT29 colon; 0.637 µM with MDA-MB-435. For the same compound, the results for the GI50 with MOLT-4 leukemia, with NCI-H460 lung and in the test with RPMI-8226 leukemia were 2.68 µM, 1.8 µM and 0.349 µM, respectively. Also, the TGI with 786-0 renal turned out to be 2.65 µM; in the test on HCC-2998 colon, 2.46 µM; in the test with HL-60(TB) leukemia it was 4.98 µM; in the test with HS 578T breast, 7.93 µM; in the test with HT29 colon, 2.15 µM; with MDA-MB-435 it was 2.08 µM. Besides, the results for the TGI in the test with MOLT-4 leukemia, in the test with NCI-H460 lung and in the test on RPMI-8226 leukemia were 19.5 µM, 3.63 µM and 2.05 µM, respectively.

As for `N=C(N)c1ccc(COc2ccccc2OCc2ccc(C(=N)N)cc2)cc1`, the GI50 in the test with 786-0 renal was 29.8 µM; in the test with CAKI-1 renal it was 2.11 µM; in the test on HCC-2998 colon, 86.8 µM; in the test with HS 578T breast it was 18.2 µM; with HT29 colon, 47 µM; in the test on MDA-MB-435 it was 30.2 µM. Further, the values for the GI50 in the test with MOLT-4 leukemia, in the test on NCI-H460 lung and in the test on RPMI-8226 leukemia were 49.6 µM, 20.9 µM and 16.6 µM, respectively. The TGI is greater than 100 µM in the test on 786-0 renal; 29.8 µM in the test on CAKI-1 renal; greater than 100 µM with HCC-2998 colon; 52.6 µM with HS 578T breast; greater than 100 µM in the test on HT29 colon; greater than 100 µM in the test with MDA-MB-435. For the same compound, the TGI was greater than 100 µM with MOLT-4 leukemia, greater than 100 µM with NCI-H460 lung and 99.3 µM with RPMI-8226 leukemia.
